Patent US20190290892A1, “METHODS OF DETERMINING DOSING OF A THERAPEUTIC AGENT BASED ON MEASURED LEVELS OF A METABOLITE” (Clear Creek Bio, Inc., priority 2018, published 2019)

Experiments:
[1] = Burris, 650 mg/m^2 brequinar (days 1, 8 and 15) with 75 mg/m^2 cisplatin (day 1); cited from earlier work
[2] = Adverse events in subjects receiving brequinar intravenously once a week; format: in vivo, human; conditions: i.v. once a week, 209 subjects
advanced lung cancer = conditions: Gralla, weekly rapid iv injection from 5 mg/kg (200 mg/m^2), previously treated patients with advanced lung cancer; cited from earlier work

Cc1c(-c2ccc(-c3ccccc3F)cc2)nc2ccc(F)cc2c1C(=O)O [brequinar, 6-fluoro-2-(2′-fluoro-1,1′ biphenyl-4-yl)-3-methyl-4-quinoline carboxylic acid]
effect of combination on individual drug pharmacokinetic parameters [1]: without significant modifications of individual drug pharmacokinetic parameters | All Body Systems, No. of Patients Experiencing the AE, 5y Max Grade 1 [2]: 36 | All Body Systems, No. of Patients Experiencing the AE, 5y Max Grade 2 [2]: 76 | All Body Systems, No. of Patients Experiencing the AE, 5y Max Grade 3 [2]: 55 | All Body Systems, No. of Patients Experiencing the AE, 5y Max Grade 4 [2]: 35 | Anemia, No. of Patients [2]: 90 | Anemia, No. of Patients Experiencing the AE, 5y Max Grade 1 [2]: 14 | Anemia, No. of Patients Experiencing the AE, 5y Max Grade 2 [2]: 48 | Anemia, No. of Patients Experiencing the AE, 5y Max Grade 3 [2]: 23 | Anemia, No. of Patients Experiencing the AE, 5y Max Grade 4 [2]: 5 | Anorexia, No. of Patients [2]: 15 | Anorexia, No. of Patients Experiencing the AE, 5y Max Grade 1 [2]: 11 | Anorexia, No. of Patients Experiencing the AE, 5y Max Grade 2 [2]: 3 | Anorexia, No. of Patients Experiencing the AE, 5y Max Grade 3 [2]: 1 | Anorexia, No. of Patients Experiencing the AE, 5y Max Grade 4 [2]: 0 | Anorexia, Percent [2]: 7.2% | Constipation, No. of Patients [2]: 10 | Constipation, No. of Patients Experiencing the AE, 5y Max Grade 1 [2]: 6 | Constipation, No. of Patients Experiencing the AE, 5y Max Grade 2 [2]: 2 | Constipation, No. of Patients Experiencing the AE, 5y Max Grade 3 [2]: 1 | Constipation, No. of Patients Experiencing the AE, 5y Max Grade 4 [2]: 0 | Constipation, Percent [2]: 4.8% | Diarrhea, No. of Patients [2]: 77 | Diarrhea, No. of Patients Experiencing the AE, 5y Max Grade 1 [2]: 43 | Diarrhea, No. of Patients Experiencing the AE, 5y Max Grade 2 [2]: 21 | Diarrhea, No. of Patients Experiencing the AE, 5y Max Grade 3 [2]: 10 | Diarrhea, No. of Patients Experiencing the AE, 5y Max Grade 4 [2]: 3 | Dyspepsia, No. of Patients [2]: 7 | Dyspepsia, No. of Patients Experiencing the AE, 5y Max Grade 1 [2]: 6 | Dyspepsia, No. of Patients Experiencing the AE, 5y Max Grade 2 [2]: 1 | Dyspepsia, No. of Patients Experiencing the AE, 5y Max Grade 3 [2]: 0 | Dyspepsia, No. of Patients Experiencing the AE, 5y Max Grade 4 [2]: 0 | Dyspepsia, Percent [2]: 3.3% | Fatigue, No. of Patients [2]: 33 | Fatigue, No. of Patients Experiencing the AE, 5y Max Grade 1 [2]: 23 | Fatigue, No. of Patients Experiencing the AE, 5y Max Grade 2 [2]: 8 | Fatigue, No. of Patients Experiencing the AE, 5y Max Grade 3 [2]: 2 | Fatigue, No. of Patients Experiencing the AE, 5y Max Grade 4 [2]: 0 | Fever, No. of Patients [2]: 11 | Fever, No. of Patients Experiencing the AE, 5y Max Grade 1 [2]: 4 | Fever, No. of Patients Experiencing the AE, 5y Max Grade 2 [2]: 7 | Fever, No. of Patients Experiencing the AE, 5y Max Grade 3 [2]: 0 | Fever, No. of Patients Experiencing the AE, 5y Max Grade 4 [2]: 0 | Fever, Percent [2]: 5.3% | Granulocytopenia, No. of Patients [2]: 37 | Granulocytopenia, No. of Patients Experiencing the AE, 5y Max Grade 1 [2]: 16 | Granulocytopenia, No. of Patients Experiencing the AE, 5y Max Grade 2 [2]: 17 | Granulocytopenia, No. of Patients Experiencing the AE, 5y Max Grade 3 [2]: 3 | Granulocytopenia, No. of Patients Experiencing the AE, 5y Max Grade 4 [2]: 5 | Headache, No. of Patients [2]: 7 | Headache, No. of Patients Experiencing the AE, 5y Max Grade 1 [2]: 4 | Headache, No. of Patients Experiencing the AE, 5y Max Grade 2 [2]: 3 | Headache, No. of Patients Experiencing the AE, 5y Max Grade 3 [2]: 0 | Headache, No. of Patients Experiencing the AE, 5y Max Grade 4 [2]: 0 | Headache, Percent [2]: 3.3% | Infection, No. of Patients [2]: 7 | Infection, No. of Patients Experiencing the AE, 5y Max Grade 1 [2]: 4 | Infection, No. of Patients Experiencing the AE, 5y Max Grade 2 [2]: 3 | Infection, No. of Patients Experiencing the AE, 5y Max Grade 3 [2]: 0 | Infection, No. of Patients Experiencing the AE, 5y Max Grade 4 [2]: 0 | Infection, Percent [2]: 3.3% | Leukopenia, No. of Patients [2]: 69 | Leukopenia, No. of Patients Experiencing the AE, 5y Max Grade 1 [2]: 26 | Leukopenia, No. of Patients Experiencing the AE, 5y Max Grade 2 [2]: 31 | Leukopenia, No. of Patients Experiencing the AE, 5y Max Grade 3 [2]: 10 | Leukopenia, No. of Patients Experiencing the AE, 5y Max Grade 4 [2]: 2 | Leukopenia, Percent [2]: 33.0% | Mucositis, No. of Patients [2]: 52 | Mucositis, No. of Patients Experiencing the AE, 5y Max Grade 1 [2]: 23 | Mucositis, No. of Patients Experiencing the AE, 5y Max Grade 2 [2]: 15 | Mucositis, No. of Patients Experiencing the AE, 5y Max Grade 3 [2]: 11 | Mucositis, No. of Patients Experiencing the AE, 5y Max Grade 4 [2]: 3 | Nausea, No. of Patients [2]: 91 | Nausea, No. of Patients Experiencing the AE, 5y Max Grade 1 [2]: 59 | Nausea, No. of Patients Experiencing the AE, 5y Max Grade 2 [2]: 19 | Nausea, No. of Patients Experiencing the AE, 5y Max Grade 3 [2]: 12 | Nausea, No. of Patients Experiencing the AE, 5y Max Grade 4 [2]: 1 | Pain Inject Site, No. of Patients [2]: 24 | Pain Inject Site, No. of Patients Experiencing the AE, 5y Max Grade 1 [2]: 24 | Pain Inject Site, No. of Patients Experiencing the AE, 5y Max Grade 2 [2]: 0 | Pain Inject Site, No. of Patients Experiencing the AE, 5y Max Grade 3 [2]: 0 | Pain Inject Site, No. of Patients Experiencing the AE, 5y Max Grade 4 [2]: 0 | Pain, Abdominal, No. of Patients [2]: 8 | Pain, Abdominal, No. of Patients Experiencing the AE, 5y Max Grade 1 [2]: 4 | Pain, Abdominal, No. of Patients Experiencing the AE, 5y Max Grade 2 [2]: 3 | Pain, Abdominal, No. of Patients Experiencing the AE, 5y Max Grade 3 [2]: 1 | Pain, Abdominal, No. of Patients Experiencing the AE, 5y Max Grade 4 [2]: 0 | Pain, Abdominal, Percent [2]: 3.8% | Rash, No. of Patients [2]: 53 | Rash, No. of Patients Experiencing the AE, 5y Max Grade 1 [2]: 26 | Rash, No. of Patients Experiencing the AE, 5y Max Grade 2 [2]: 15 | Rash, No. of Patients Experiencing the AE, 5y Max Grade 3 [2]: 9 | Rash, No. of Patients Experiencing the AE, 5y Max Grade 4 [2]: 3 | Somnolence, No. of Patients [2]: 9 | Somnolence, No. of Patients Experiencing the AE, 5y Max Grade 1 [2]: 7 | Somnolence, No. of Patients Experiencing the AE, 5y Max Grade 2 [2]: 2 | Somnolence, No. of Patients Experiencing the AE, 5y Max Grade 3 [2]: 0 | Somnolence, No. of Patients Experiencing the AE, 5y Max Grade 4 [2]: 0 | Somnolence, Percent [2]: 4.3% | Stomatitis, No. of Patients [2]: 60 | Stomatitis, No. of Patients Experiencing the AE, 5y Max Grade 1 [2]: 32 | Stomatitis, No. of Patients Experiencing the AE, 5y Max Grade 2 [2]: 20 | Stomatitis, No. of Patients Experiencing the AE, 5y Max Grade 3 [2]: 7 | Stomatitis, No. of Patients Experiencing the AE, 5y Max Grade 4 [2]: 1 | Thrombocytopenia, No. of Patients [2]: 94 | Thrombocytopenia, No. of Patients Experiencing the AE, 5y Max Grade 1 [2]: 26 | Thrombocytopenia, No. of Patients Experiencing the AE, 5y Max Grade 2 [2]: 31 | Thrombocytopenia, No. of Patients Experiencing the AE, 5y Max Grade 3 [2]: 16 | Thrombocytopenia, No. of Patients Experiencing the AE, 5y Max Grade 4 [2]: 21 | Thrombocytopenia, Percent [2]: 45.0% | Vomit, No. of Patients [2]: 73 | Vomit, No. of Patients Experiencing the AE, 5y Max Grade 1 [2]: 32 | Vomit, No. of Patients Experiencing the AE, 5y Max Grade 2 [2]: 24 | Vomit, No. of Patients Experiencing the AE, 5y Max Grade 3 [2]: 12 | Vomit, No. of Patients Experiencing the AE, 5y Max Grade 4 [2]: 5

NC(=O)c1[nH]nc([C@@H]2O[C@H](CO)[C@@H](O)[C@H]2O)c1O [pyrazofurin, 5-[(2S,3R,4S,5R)-3,4-dihydroxy-5-(hydroxymethyl)oxolan-2-yl]-4-hydroxy-1H-pyrazole-3-carboxamide]
therapeutic activity (advanced lung cancer): little therapeutic value as a single agent
